According to ChEMBL document CHEMBL5113441, “Exploration of 4-(1H-indol-3-yl)cyclohex-3-en-1-amine analogues as HDAC inhibitors: Design, synthesis, biological evaluation and modelling studies” (Bioorg Med Chem Lett, 2022):
Active and inactive are the calls of the source. No cut-off for these calls is given here.

Tests used:
Type in all cases: functional, cell-based
MCF7 = assay: Antiproliferative activity against human MCF7 cells measured after 72 hrs; conditions: MCF7, 72 h
HCT-116 [1] = assay: Antiproliferative activity against human HCT-116 cells measured after 72 hrs; conditions: HCT-116, 72 h
SW480 = assay: Antiproliferative activity against human SW480 cells measured after 72 hrs; conditions: SW480, 72 h
A549 = assay: Antiproliferative activity against human A549 cells measured after 72 hrs; conditions: A549, 72 h
HCT-116 [2] = assay: Induction of apoptosis in human HCT-116 cells at 2000 nM measured after 48 hrs by Annexin-FITC/propidium iodide staining based flow cytometry

SMILES	IC50 (MCF7) [nM]	IC50 (HCT-116 [1]) [nM]	IC50 (SW480) [nM]	IC50 (A549) [nM]	Activity (HCT-116 [2])
COc1cc(OCC(=O)NO)ccc1CNCCc1c[nH]c2ccccc12	> 10000	> 10000	–	–	–
Cc1[nH]c2ccccc2c1C1=CCN(C(=O)c2ccc(OCC(=O)NO)cc2)CC1	–	> 5000	> 5000	–	–
Cc1ccc2[nH]cc(C3=CCN(Cc4ccc(OCC(=O)NO)cc4)CC3)c2c1	–	632	3960	–	–
O=C(COc1ccc(CNC2CC=C(c3c[nH]c4ccccc34)CC2)c(F)c1)NO (configuration not stated)	1170	436	1150	278	–
O=C(COc1ccc(CN2CC=C(c3c[nH]c4cccc(F)c34)CC2)cc1)NO	–	969	2310	–	–
Cc1ccc2[nH]cc(C3=CCN(Cc4ccc(OCC(=O)NO)cc4F)CC3)c2c1	–	1450	1950	–	–
O=C(CCCCCCC(=O)Nc1ccccc1)NO [VORINOSTAT]	–	–	2120	–	Active
Cc1[nH]c2cccc(F)c2c1C1=CCC(NCc2ccc(OCC(=O)NO)cc2F)CC1 (configuration not stated)	1180	254	–	244	–
Cc1[nH]c2ccccc2c1C1=CCC(NCc2ccc(OCC(=O)NO)cc2)CC1 (configuration not stated)	898	184	367	187	–
O=C(COc1ccc(C(=O)N2CC=C(c3c[nH]c4ccc(F)cc34)CC2)cc1)NO	–	> 5000	> 5000	–	–
O=C(COc1ccc(CNC2CC=C(c3c[nH]c4cccc(F)c34)CC2)c(F)c1)NO (configuration not stated)	915	173	189	203	–
Cc1[nH]c2ccccc2c1C1=CCC(NC(=O)c2ccc(OCC(=O)NO)cc2)CC1 (configuration not stated)	–	> 5000	> 5000	–	–
O=C(COc1ccc(CN2CC=C(c3c[nH]c4ccc(F)cc34)CC2)cc1)NO	–	949	1110	–	–
O=C(COc1ccc(CNCCc2c[nH]c3ccccc23)cc1Cl)NO	1080	1940	–	–	–
O=C(COc1ccc(CNCCc2c[nH]c3ccccc23)cc1)NO	221	192	–	–	–
